Test system: anti-M2 human monoclonal antibody Z3G1
Assay type: binding

Row | Substance | Signal (peptides that bind to Z3G1) | Signal (peptides that show specific binding to Z3G1)
1 | 1368 (SLLTEVETPCRNE; epitope peptide) [compound 1368] | 1665 | –
2 | 1343 (CSCLCEVGMSLLCEV; epitope peptide) [compound 1343] | 1945 | –
3 | 1286 (MSLLKEVETPIRNEWGCRCN; epitope peptide) [compound 1286] | 2825 | –
4 | 1567 (HLLTEVETPIRNEWGCRCNDSSD; epitope peptide) [compound 1567] | – | 1946
5 | 1585 (SLLKEVETPIRNEWGCRCNDSSD; epitope peptide) [compound 1585] | – | 2611
6 | 1576 (YLLTEVETPIRNEWGCRCNDSSD; epitope peptide) [compound 1576] | – | 1882
7 | 1325 (MSLLCEVETPIRNC; epitope peptide) [compound 1325] | 2823 | –
8 | 1307 (MSLLTEVNTPIRNEWGCRCN; epitope peptide) [compound 1307] | 2807 | –
9 | 1340 (MSCLTEVGMSLLCEV; epitope peptide) [compound 1340] | 2341 | –
10 | 1322 (MCLLTEVECPIRNE; epitope peptide) [compound 1322] | 2421 | –
11 | 1393 (SLLCEVETCIRNEWG; epitope peptide) [compound 1393] | 2531 | –
12 | 1557 (CLCTCVGSLLCEV; epitope peptide) [compound 1557] | – | 2246
13 | 1551 (SLLCEVGSCLTEV; epitope peptide) [compound 1551] | – | 2499
14 | 1582 (SLLGEVETPIRNEWGCRCNDSSD; epitope peptide) [compound 1582] | – | 2301
15 | 1494 (CLTEVETPIRLLTEVETPICVETPIRNEW; epitope peptide; MISC_FEATURE (1)..(1): C is an attachment site for a CLIP; MISC_FEATURE (10)..(10): R is an attachment site for a CLIP; MISC_FEATURE (11)..(11): L is an attachment site for a CLIP; MISC_FEATURE (29)..(29): W is an attachment site for a CLIP) [compound 1494] | 2443 | –
16 | 1327 (MSLLCEVETPICNE; epitope peptide) [compound 1327] | 2704 | –
17 | 1290 (MSLLPEVETPIRNEWGCRCN; epitope peptide) [compound 1290] | 2728 | –
18 | 1478 (CLTEVETPIRLLTEVETPICEVETPIRNE; epitope peptide; MISC_FEATURE (1)..(1): C is an attachment site for a CLIP; MISC_FEATURE (10)..(10): R is an attachment site for a CLIP; MISC_FEATURE (11)..(11): L is an attachment site for a CLIP; MISC_FEATURE (29)..(29): E is an attachment site for a CLIP) [compound 1478] | 1681 | –
19 | 1274 (MSLNTEVETPIRNEWGCRCN; epitope peptide) [compound 1274] | 2787 | –
20 | 1284 (MSLLHEVETPIRNEWGCRCN; epitope peptide) [compound 1284] | 2691 | –

Row | Substance | Signal (peptides that bind to Z3G1) | Signal (peptides that show specific binding to Z3G1)
21 | 1277 (MSLRTEVETPIRNEWGCRCN; epitope peptide) [compound 1277] | 2554 | –
22 | 1394 (SLLCEVECPIRNEWG; epitope peptide) [compound 1394] | 2529 | –
23 | 1399 (SLLTEVETPIRNECG; epitope peptide) [compound 1399] | 1545 | –
24 | 1397 (CLLTEVCTPIRNEWG; epitope peptide) [compound 1397] | 1634 | –
25 | 1460 (CEVETPIRNELLTEVETPICTEVETPIRN; epitope peptide; MISC_FEATURE (1)..(1): C is an attachment site for a CLIP; MISC_FEATURE (10)..(10): E is an attachment site for a CLIP; MISC_FEATURE (11)..(11): L is an attachment site for a CLIP; MISC_FEATURE (29)..(29): N is an attachment site for a CLIP) [compound 1460] | 1620 | –
26 | 1583 (SLLHEVETPIRNEWGCRCNDSSD; epitope peptide) [compound 1583] | – | 2462
27 | 1278 (MSLYTEVETPIRNEWGCRCN; epitope peptide) [compound 1278] | 1313 | –
28 | 1371 (SLLCEVETPIRNE; epitope peptide) [compound 1371] | 2511 | –
29 | 1351 (MSLLCEVGMSCLCEC; epitope peptide) [compound 1351] | 2492 | –
30 | 1553 (CLLTEVGSLLCEV; epitope peptide) [compound 1553] | – | 2168
31 | 1364 (SLLCEVETPCRNE; epitope peptide) [compound 1364] | 2035 | –
32 | 1556 (CSCLCEVGSLLCEV; epitope peptide) [compound 1556] | – | 1583
33 | 1584 (SLLIEVETPIRNEWGCRCNDSSD; epitope peptide) [compound 1584] | – | 1899
34 | 1561 (SLLCEVGCLCTCV; epitope peptide) [compound 1561] | – | 2331
35 | 1534 (SLLCEVETPIRNEWGCRCNDSSD; epitope peptide) [compound 1534] | – | 2161
36 | 1285 (MSLLIEVETPIRNEWGCRCN; epitope peptide) [compound 1285] | 2371 | –
37 | 1569 (KLLTEVETPIRNEWGCRCNDSSD; epitope peptide) [compound 1569] | – | 1826
38 | 1555 (SLLTCVGSLLCEV; epitope peptide) [compound 1555] | – | 2264
39 | 1479 (CTEVETPIRNLLTEVETPICEVETPIRNE; epitope peptide; MISC_FEATURE (1)..(1): C is an attachment site for a CLIP; MISC_FEATURE (10)..(10): N is an attachment site for a CLIP; MISC_FEATURE (11)..(11): L is an attachment site for a CLIP; MISC_FEATURE (29)..(29): E is an attachment site for a CLIP) [compound 1479] | 1627 | –
40 | 1512 (CTEVETPIRNLLTEVETPICETPIRNEWG; epitope peptide; MISC_FEATURE (1)..(1): C is an attachment site for a CLIP; MISC_FEATURE (10)..(10): N is an attachment site for a CLIP; MISC_FEATURE (11)..(11): L is an attachment site for a CLIP; MISC_FEATURE (29)..(29): G is an attachment site for a CLIP) [compound 1512] | – | 2645
